Assay results as given in patent US9181236B2, “2-spiro-substituted iminothiazines and their mono-and dioxides as bace inhibitors, compositions and their use” (Merck Sharp & Dohme Corp., priority 2011, dated 2015).

Experiments:
[1] = target: soluble human BACE1 catalytic domain (Homo sapiens (Human), UniProt P56817); experiment: BACE1 HTRF FRET Assay; assay type: biochemical; conditions: for Ki: Ki calculated from IC50 using the Cheng-Prusoff equation; for inhibition at 10 µM: read-out: BACE1 % Inh. at 10 μM
Text: A homogeneous time-resolved FRET assay can be used to determine IC50 values for inhibitors of the soluble human BACE1 catalytic domain. This assay monitors the increase of 620 nm fluorescence that resulted from BACE1 cleavage of an APPswedish APP^swe mutant peptide FRET substrate (QSY7-[…]-Europium-amide). This substrate contains an N-terminal QSY7 moiety that serves as a quencher of the C-terminal Europium fluorophore (620 nm Em). In the absence of enzyme activity, 620 nm fluorescence is low in the assay and increased linearly over 3 hours in the presence of uninhibited BACE1 enzyme Inhibition of BACE1 cleavage of the QSY7-APP^swe-Eu substrate by inhibitors is manifested as a suppression of 620 nm fluorescence.
Reactions are initiated by addition of 10 μl of 600 nM QSY7-APP^swe-Eu substrate (200 nM final) to give a final reaction volume of 30 μl in a 384 well Nunc HTRF plate. The reactions are incubated at 30° C. for 1.5 hours. The 620 nm fluorescence is then read on a Rubystar HTRF plate reader (BMG Labtechnologies) using a 50 millisecond delay followed by a 400 millisecond acquisition time window Inhibitor IC50 values are derived from non-linear regression analysis of concentration response curves.

[2] = target: purified human autoBACE-2 (Homo sapiens (Human), UniProt Q9Y5Z0); experiment: BACE-2 Assay (BACE-HTRF assay); assay type: biochemical; conditions: Ki calculated from IC50 using the Cheng-Prusoff equation; read-out: BACE2 Ki
Method: Inhibitor IC50s at purified human autoBACE-2 are determined in a time-resolved endpoint proteolysis assay that measures hydrolysis of the QSY7-[…]-Eu-amide FRET peptide substrate (BACE-HTRF assay). […] DMSO is present at 5% final concentration in the assay. Following laser excitation of sample wells at 320 nm, the fluorescence signal at 620 nm is collected for 400 ms following a 50 μs delay on a RUBYstar HTRF plate reader (BMG Labtechnologies). Raw RFU data is normalized to maximum (1.0 nM BACE/DMSO) and minimum (no enzyme/DMSO) RFU values. […] The Ki values are calculated from the IC50 using the Cheng-Prusoff equation.

Sequence of soluble human BACE1 catalytic domain (P56817 75-416): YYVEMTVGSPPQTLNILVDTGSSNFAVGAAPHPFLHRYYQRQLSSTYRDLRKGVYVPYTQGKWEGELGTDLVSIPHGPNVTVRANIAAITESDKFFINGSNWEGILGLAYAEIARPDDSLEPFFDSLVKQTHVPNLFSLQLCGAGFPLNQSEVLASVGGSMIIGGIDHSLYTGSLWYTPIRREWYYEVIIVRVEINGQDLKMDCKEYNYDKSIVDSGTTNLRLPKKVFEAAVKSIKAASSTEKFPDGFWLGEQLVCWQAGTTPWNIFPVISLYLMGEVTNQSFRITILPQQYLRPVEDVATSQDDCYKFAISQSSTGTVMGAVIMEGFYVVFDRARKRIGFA
Sequence of purified human autoBACE-2 (Q9Y5Z0 63-473 limits assumed): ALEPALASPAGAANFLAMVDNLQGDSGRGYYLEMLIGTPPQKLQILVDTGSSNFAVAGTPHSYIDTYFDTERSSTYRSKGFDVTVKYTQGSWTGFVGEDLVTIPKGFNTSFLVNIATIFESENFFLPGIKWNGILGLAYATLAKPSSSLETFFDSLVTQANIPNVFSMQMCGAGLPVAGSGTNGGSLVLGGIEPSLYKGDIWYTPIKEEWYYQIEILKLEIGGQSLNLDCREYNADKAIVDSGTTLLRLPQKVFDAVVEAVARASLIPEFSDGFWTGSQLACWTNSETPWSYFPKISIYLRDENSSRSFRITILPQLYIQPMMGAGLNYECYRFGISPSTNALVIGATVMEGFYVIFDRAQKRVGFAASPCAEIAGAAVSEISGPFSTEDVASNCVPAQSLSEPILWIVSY

Row | Structure (SMILES) | Ki [1] [nM] | Ki [2] [nM] | inhibition at 10 µM [1] [%]
1 | C[C@@]1(c2sc(-c3cccc(-c4nnco4)c3)cc2Cl)CS(=O)(=O)C2(CC2)C(=N)N1 [Example 65a] | 11 | < 50 | –
2 | C[C@@]1(c2sc(-c3ccnc(-c4cccs4)c3)cc2Cl)CS(=O)(=O)[C@]2(CCOC2)C(=N)N1 [Example 62k] | 305 | < 20 | –
3 | C[C@@]1(c2cc(NC(=O)c3ccc(F)cn3)ccc2F)CS(=O)(=O)C2(CCC(O)C2)C(=N)N1 (single isomer, unassigned) [Example 76b] | 104 | < 50 | –
4 | COc1cnc(C(=O)Nc2ccc(F)c([C@]3(C)CS(=O)(=O)[C@@]4(CCOC4)C(=N)N3)c2)cn1 [Example 63] | 41 | < 50 | –
5 | C[C@@]1(c2cc([N+](=O)[O-])ccc2F)CS(=O)(=O)[C@]2(CCOC2)C(=N)N1 | 6690 | 2080 | –
6 | C[C@@]1(c2cc(NC(=O)c3ccc(Cl)cn3)ccc2F)CS(=O)(=O)C2(CCCC2)C(=N)N1 [Example 12] | 1.3 | 0.3 | –
7 | C[C@@]1(c2cc(NC(=O)c3ccc(Cl)cn3)ccc2F)CS(=O)(=O)[C@@]2(CCOC2)C(=N)N1 [Example 63c] | 5.9 | 1.3 | –
8 | COc1cnc(C(=O)Nc2ccc(F)c([C@]3(C)CS(=O)(=O)C4(CCCC4)C(=N)N3)c2)cn1 [Example 17] | 3.6 | 1.5 | –
9 | C[C@@]1(c2cc(NC(=O)c3ccc(F)cn3)ccc2F)CS(=O)(=O)C2(CCCCC2)C(=N)N1 [Example 25] | 32 | 4.4 | –
10 | C[C@@]1(c2cc(NC(=O)c3ccc(C#N)cn3)ccc2F)CS(=O)(=O)C2(CCC2)C(N)=N1 [Example 11] | 5.4 | < 20 | –
11 | C[C@@]1(c2cc(NC(=O)c3ccc(Cl)cn3)ccc2F)CS(=O)(=O)C2(CCOCC2)C(=N)N1 [Example 33] | 6.1 | 1.6 | –
12 | COc1cccc2cc(-c3cc(Cl)c([C@]4(C)CS(=O)(=O)[C@]5(CCOC5)C(=N)N4)s3)[nH]c12 [Example 62g] | 6.3 | 0.9 | –
13 | C[C@@]1(c2cc(NC(=O)C3CCC3)ccc2F)CS(=O)(=O)[C@]2(CCOC2)C(=N)N1 [Example 81f] | 2080 | – | –
14 | CC(C)C(F)(F)c1ccc(C(=O)Nc2ccc(F)c([C@]3(C)CS(=O)(=O)[C@]4(CCOC4)C(=N)N3)c2)nc1 [Example 81ac] | – | – | 35
15 | C[C@@]1(c2sc(-c3cncnc3)cc2Cl)CS(=O)(=O)C2(CCOCC2)C(=N)N1 [Example 51] | 688 | – | –
16 | C[C@@]1(c2cc(-n3cc(-c4ccccc4)nn3)ccc2F)CS(=O)(=O)C2(CCC2)C(=N)N1 [Example 39a] | 2320 | – | –
17 | Cc1ncc(NC(=O)c2cc(Cl)c([C@]3(C)CS(=O)(=O)C4(CCCCC4)C(=N)N3)s2)cn1 [Example 80h] | – | – | 32
18 | CCOCC(=O)Nc1ccc(F)c([C@]2(C)CS(=O)(=O)[C@]3(CCOC3)C(=N)N2)c1 [Example 81a] | 4150 | – | –
19 | COCC(=O)Nc1ccc(F)c([C@]2(C)CS(=O)(=O)[C@]3(CCOC3)C(=N)N2)c1 [Example 81w] | 429 | – | –
20 | C[C@@]1(c2cc(NC(=O)c3cscn3)ccc2F)CS(=O)(=O)[C@]2(CCOC2)C(=N)N1 [Example 81u] | 433 | – | –

Row | Structure (SMILES) | Ki [1] [nM] | Ki [2] [nM] | inhibition at 10 µM [1] [%]
21 | C[C@@]1(c2sc(-c3cncc(N4CCOCC4)c3)cc2Cl)CS(=O)(=O)[C@@]2(CCOC2)C(=N)N1 [Example 63j] | 3690 | – | –
22 | C[C@@]1(c2sc(C(=O)NCc3ccsn3)cc2Cl)CS(=O)(=O)C2(CCCCC2)C(=N)N1 [Example 80k] | 121 | – | –
23 | C[C@@]1(c2sc(-c3ccnc(-c4cccs4)c3)cc2Cl)CS(=O)(=O)[C@@]2(CCOC2)C(=N)N1 [Example 63m] | 986 | – | –
24 | C[C@@]1(c2cc(NC(=O)C3CC3(F)F)ccc2F)CS(=O)(=O)[C@]2(CCOC2)C(=N)N1 (some centres unmarked) [Example 81s] | 1250 | – | –
25 | C[C@@]1(c2cc(-n3cc(-c4cccnc4)nn3)ccc2F)CS(=O)(=O)C2(CCC2)C(=N)N1 [Example 39b] | 8560 | – | –
26 | CC1(C(=O)Nc2ccc(F)c([C@]3(C)CS(=O)(=O)[C@]4(CCOC4)C(=N)N3)c2)COC1 [Example 81p] | 4180 | – | –
27 | C[C@@]1(c2sc(-c3ccnc(-c4ccoc4)c3)cc2Cl)CS(=O)(=O)[C@@]2(CCOC2)C(=N)N1 [Example 63l] | 674 | – | –
28 | C[C@@]1(c2sc(C(=O)NCc3cnn4ccccc34)cc2Cl)CS(=O)(=O)C2(CCCCC2)C(=N)N1 [Example 80b] | 41 | – | –
29 | C[C@@]1(c2cc(NC(=O)c3ncc(Cl)cc3C#N)ccc2F)CS(=O)(=O)[C@]2(CCOC2)C(=N)N1 [Example 81ag] | 5.7 | – | –
30 | C[C@@]1(c2sc(-c3ccnc(-c4ccccc4)c3)cc2Cl)CS(=O)(=O)[C@@]2(CCOC2)C(=N)N1 [Example 63k] | 849 | – | –
31 | CC(F)(F)C(=O)Nc1ccc(F)c([C@]2(C)CS(=O)(=O)[C@]3(CCOC3)C(=N)N2)c1 [Example 81ad] | 313 | – | –
32 | C[C@@]1(c2sc(-c3cncc(F)c3)cc2Cl)CS(=O)(=O)C2(CCOCC2)C(=N)N1 [Example 55] | 260 | – | –
33 | C[C@@]1(c2cc(NC(=O)c3ncccc3C(F)(F)F)ccc2F)CS(=O)(=O)[C@]2(CCOC2)C(=N)N1 [Example 81ab] | 146 | – | –
34 | C[C@@]1(c2cc(-c3cncc(Cl)c3)ccc2F)CS(=O)(=O)C2(CCCC2)C(=N)N1 [Example 37] | 459 | – | –
35 | CCc1cncc(-c2cc(Cl)c([C@]3(C)CS(=O)(=O)[C@@]4(CCOC4)C(=N)N3)s2)c1 [Example 63i] | 1780 | – | –
36 | C[C@@]1(c2cc(NC(=O)CC(F)(F)F)ccc2F)CS(=O)(=O)[C@]2(CCOC2)C(=N)N1 [Example 81r] | 3170 | – | –
37 | CCC(=O)Nc1ccc(F)c([C@]2(C)CS(=O)(=O)[C@]3(CCOC3)C(=N)N2)c1 [Example 81l] | 949 | – | –
38 | C[C@@]1(c2sc(C(=O)NCc3ccc(C#N)cc3)cc2Cl)CS(=O)(=O)C2(CCCCC2)C(=N)N1 [Example 80f] | 851 | – | –
39 | C[C@@]1(c2sc(C(=O)NCc3ccncn3)cc2Cl)CS(=O)(=O)C2(CCCCC2)C(=N)N1 [Example 80c] | 4150 | – | –
40 | COc1cccc2cc(-c3ccc(F)c([C@]4(C)CS(=O)(=O)C5(CCCC5)C(=N)N4)c3)n(C(=O)OC(C)(C)C)c12 [Example 39] | 1330 | – | –

Row | Structure (SMILES) | Ki [1] [nM] | Ki [2] [nM] | inhibition at 10 µM [1] [%]
41 | C[C@@]1(c2cc(NC(=O)C3CCC3(F)F)ccc2F)CS(=O)(=O)[C@]2(CCOC2)C(=N)N1 (some centres unmarked) [Example 81o] | 3710 | – | –
42 | C[C@@]1(c2sc(-c3cncnc3)cc2Cl)CS(=O)(=O)C2(CCCCC2)C(=N)N1 [Example 47] | 545 | – | –
43 | C[C@@]1(c2sc(-c3cncnc3)cc2Cl)CS(=O)(=O)C2(CCCC2)C(=N)N1 [Example 43] | 73.1 | – | –
44 | C[C@@]1(c2sc(C#CCCNS(C)(=O)=O)cc2Cl)CS(=O)(=O)C2(CCC2)C(=N)N1 [Example 77c] | 105 | – | –
45 | CC1(C(=O)Nc2ccc(F)c([C@]3(C)CS(=O)(=O)[C@]4(CCOC4)C(=N)N3)c2)CC1 [Example 81e] | 998 | – | –
46 | C[C@@]1(c2cc(NC(=O)c3ccc(Cl)cc3)ccc2F)CS(=O)(=O)[C@]2(CCOC2)C(=N)N1 [Example 81m] | 82 | – | –
47 | C[C@@]1(c2cc(NC(=O)c3ccc(Cl)cn3)ccc2F)CS(=O)(=O)C2(CCCCC2)C(=N)N1 [Example 24] | – | < 20 | –
48 | C[C@@]1(c2cc(NC(=O)c3ccc(OC(F)(F)F)cn3)ccc2F)CS(=O)(=O)[C@]2(CCOC2)C(=N)N1 [Example 81aa] | 304 | – | –
49 | C[C@@]1(c2sc(-c3cccc(-c4nnco4)c3)cc2Cl)CS(=O)(=O)C2(CCOCC2)C(=N)N1 [Example 57a] | 34.9 | – | –
50 | COc1cccc(NC(=O)c2cc(Cl)c([C@]3(C)CS(=O)(=O)C4(CCCCC4)C(=N)N3)s2)n1 [Example 80l] | 207 | – | –
51 | COc1cncc(-c2cc(Cl)c([C@]3(C)CS(=O)(=O)C4(CCOCC4)C(=N)N3)s2)c1 [Example 53] | 555 | – | –
52 | C[C@@]1(c2sc(C(=O)NCc3ccc(F)cc3)cc2Cl)CS(=O)(=O)C2(CCCCC2)C(=N)N1 [Example 80e] | 588 | – | –
53 | COc1ccc(C(=O)Nc2ccc(F)c([C@]3(C)CS(=O)(=O)[C@]4(CCOC4)C(=N)N3)c2)nn1 [Example 81ae] | 904 | – | –
54 | C[C@@]1(c2sc(-c3cncnc3)cc2Cl)CS(=O)(=O)C2(CCC2)C(=N)N1 [Example 60] | 374 | – | –
55 | C[C@@]1(c2cc(NC(=O)c3ncc(Cl)cc3F)ccc2F)CS(=O)(=O)C2(CCOCC2)C(=N)N1 [Example 35a] | 6.5 | – | –
56 | C[C@@]1(c2sc(C#CCN3CCOCC3)cc2Cl)CS(=O)(=O)C2(CCC2)C(=N)N1 [Example 77d] | 2360 | – | –
57 | C[C@@]1(c2cc(NC(=O)C3CCOCC3)ccc2F)CS(=O)(=O)[C@]2(CCOC2)C(=N)N1 [Example 81q] | – | – | 15
58 | C[C@@]1(c2sc(C(=O)NCc3cnsn3)cc2Cl)CS(=O)(=O)C2(CCCCC2)C(=N)N1 [Example 80a] | 144 | – | –
59 | C[C@@]1(c2cc(NC(=O)c3ccc(S(C)(=O)=O)cn3)ccc2F)CS(=O)(=O)[C@]2(CCOC2)C(=N)N1 [Example 81z] | 3170 | – | –
